Results as given in patent US20260317324A1, “BIFUNCTIONAL COMPOUNDS FOR DEGRADING BRAF VIA UBIQUITIN PROTEOSOME PATHWAY” (Nurix Therapeutics, Inc., priority 2023, published 2026).

Tests used:
Assay type in all cases: cell-based
BRAF V600E = target: T1, BRAF V600E (Homo sapiens, UniProt P15056, V600E); test: BRAF HiBiT degradation assay, C-terminal HiBiT-tagged BRAF V600E A375 cells (clone 1F10), Nano-Glo HiBiT Lytic assay; settings: for Dmax: A-375
T1 construct: endogenous C-terminal HiBiT fusion tag on BRAF V600E allele; endogenous in cells; host or cells: A375 clone 1F10 (CRISPR-Cas9 knock-in of the HiBiT tag; parental A375 from ATCC)
Procedure, shortened: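 A375 cells with CRISPR knock-in C-terminal HiBiT on endogenous BRAF V600E (clone 1F10) were seeded and cultured 24 h at 37 °C, then dosed with an 11-point half-log series (1 μM to 0.01 nM, duplicate, 0.2% DMSO). Lytic HiBiT luminescence gave % protein remaining; DC50 was the fitted concentration at 50%.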

BRAF G466V = target: T2, BRAF G466V (Homo sapiens, UniProt P15056, G466V); test: BRAF HiBiT degradation assay, C-terminal HiBiT-tagged BRAF G466V overexpressed in HCT-116 BRAF−/− cells (clone 8), Nano-Glo HiBiT Lytic assay
T2 construct: Horizon Discovery (HCT-116 BRAF−/− cells); host or cells: HCT-116 BRAF−/− cells, clone 8, lentiviral transduction
Description: (§1) An A375 cell line expressing a homozygous V600E mutation was purchased from ATCC (Manassas, VA, USA). An A375 clone 1F10 cell line with an endogenous C-terminal HiBiT fusion tag on BRAF V600E allele was generated internally using CRISPR-Cas9 technology and cultured in DMEM, high glucose supplemented with 10% FBS and 1× GlutaMAX. A HCT-116 BRAF−/− cell line overexpressing the C-terminal HiBiT-tagged G466V, G469A, and D594G mutants were generated by lentiviral transduction, externally at Biosettia Inc (San Diego, CA, USA). The stably transfected cells were cultured in RPMI media supplemented with 10% FBS, 1× GlutaMAX, and 0.25 μg/ml puromycin. DMEM medium, RPMI 1640 medium, GlutaMAX, fetal bovine serum (FBS), and puromycin were purchased from Gibco (Grand Island, NY, USA). HCT-116 BRAF−/− cells were purchased from Horizon Discovery (Waterbeach, UK).
(§2) The C-terminal HiBiT tagged mutant BRAF G466V, G469A, and D594G overexpressed in HCT-116 BRAF−/− cells (monoclonal cell line, cell clones 8, 34, and 63, respectively) were seeded at the density of 3,000 cells/well in 30 μL media (RPMI supplemented with 10% FBS and 1× GlutaMAX) in white opaque 384-well plates (Corning #3570) from column 1 to column 23. Wildtype HCT-116 BRAF cells were seeded in column 24 at the same cell density in 30 μL media. Cells were incubated at 37° C. with 5% CO2 for 24 h.
(§3) Intermediate compound dilution series (5-point, ranging from 5 mM to 0.5 μM, 10-fold dilutions in DMSO) were prepared in a source plate (Beckman Coulter cat. no. 001-16128). Final compound dilution series (11-point, ranging from 1 μM to 0.01 nM, half-log dilutions in DMSO) were stamped into the assay plate (Corning #3570, column 1-11 and 12-22) using the Echo Acoustic Liquid Handler (Beckman Coulter). Each compound was plated in duplicate, and the total volume of compound DMSO solution was 60 nL/well (0.2% final DMSO concentration). DMSO was included in wells A23-L23 and A24-L24. The DMSO-treated HiBiT-tagged samples served as Negative Control (NC) and the DMSO-treated wildtype samples served as Background Control (BC) for the HiBiT assay.
(§4) HiBiT signal was measured by a Nano-Glo HiBiT Lytic assay (Promega cat. no. N3050). HiBiT lytic detection reagent (Nano-Glo HiBiT Lytic Buffer with 1:50 Nano-Glo HiBiT Lytic Substrate and 1:100 LgBiT Protein, 40 μL) was added using Bravo. The mixture was incubated at room temperature, in the dark, and with gentle shaking for 10 min. Luminesce units (LU) were read on an EnVision plate reader 2105 (Perkin Elmer).
(§5) Percent protein remaining and viability remaining per sample were calculated as follows: […]
(§6) % Protein remaining values were plotted as a function of compound concentration. XC50 (DC50) values were determined by fitting curves using the following equation:
(§7) For the HiBiT degradation assay, the key parameters reported include: • The dose of compound that produces 50% degradation (DC50 at 50%): • DC50 at 50%: the Fitted X value (Conc.) at Y=50 (response) • Observed Dmax (Obs. Dmax) is the percentage protein degraded at maximal compound effect relative to DMSO-treated control: […]

BRAF G469A = target: T3, BRAF G469A (Homo sapiens, UniProt P15056, G469A); test: BRAF HiBiT degradation assay, C-terminal HiBiT-tagged BRAF G469A overexpressed in HCT-116 BRAF−/− cells (clone 34), Nano-Glo HiBiT Lytic assay
T3 construct: Horizon Discovery (HCT-116 BRAF−/− cells); host or cells: HCT-116 BRAF−/− cells, clone 34, lentiviral transduction
Description: as §1, §2, §3, §4, §5, §6, §7

BRAF D594G = target: T4, BRAF D594G (Homo sapiens, UniProt P15056, D594G); test: BRAF HiBiT degradation assay, C-terminal HiBiT-tagged BRAF D594G overexpressed in HCT-116 BRAF−/− cells (clone 63), Nano-Glo HiBiT Lytic assay
T4 construct: Horizon Discovery (HCT-116 BRAF−/− cells); host or cells: HCT-116 BRAF−/− cells, clone 63, lentiviral transduction
Description: as §1, §2, §3, §4, §5, §6, §7

[1] = A375 (BRAF V600E, Class 1), DC50 at 50% degradation
[2] = A375 (BRAF V600E, Class 1), observed Dmax, % protein degraded relative to DMSO control
[3] = BRAF G466V (Class 3), HCT-116 BRAF−/− cells, DC50 at 50% degradation
[4] = BRAF G466V (Class 3), HCT-116 BRAF−/− cells, observed Dmax relative to DMSO control
[5] = BRAF G469A (Class 2), HCT-116 BRAF−/− cells, DC50 at 50% degradation
[6] = BRAF G469A (Class 2), HCT-116 BRAF−/− cells, observed Dmax relative to DMSO control
[7] = BRAF D594G (Class 3), HCT-116 BRAF−/− cells, DC50 at 50% degradation
[8] = BRAF D594G (Class 3), HCT-116 BRAF−/− cells, observed Dmax relative to DMSO control

T4 sequence (P15056 whole entry D594G): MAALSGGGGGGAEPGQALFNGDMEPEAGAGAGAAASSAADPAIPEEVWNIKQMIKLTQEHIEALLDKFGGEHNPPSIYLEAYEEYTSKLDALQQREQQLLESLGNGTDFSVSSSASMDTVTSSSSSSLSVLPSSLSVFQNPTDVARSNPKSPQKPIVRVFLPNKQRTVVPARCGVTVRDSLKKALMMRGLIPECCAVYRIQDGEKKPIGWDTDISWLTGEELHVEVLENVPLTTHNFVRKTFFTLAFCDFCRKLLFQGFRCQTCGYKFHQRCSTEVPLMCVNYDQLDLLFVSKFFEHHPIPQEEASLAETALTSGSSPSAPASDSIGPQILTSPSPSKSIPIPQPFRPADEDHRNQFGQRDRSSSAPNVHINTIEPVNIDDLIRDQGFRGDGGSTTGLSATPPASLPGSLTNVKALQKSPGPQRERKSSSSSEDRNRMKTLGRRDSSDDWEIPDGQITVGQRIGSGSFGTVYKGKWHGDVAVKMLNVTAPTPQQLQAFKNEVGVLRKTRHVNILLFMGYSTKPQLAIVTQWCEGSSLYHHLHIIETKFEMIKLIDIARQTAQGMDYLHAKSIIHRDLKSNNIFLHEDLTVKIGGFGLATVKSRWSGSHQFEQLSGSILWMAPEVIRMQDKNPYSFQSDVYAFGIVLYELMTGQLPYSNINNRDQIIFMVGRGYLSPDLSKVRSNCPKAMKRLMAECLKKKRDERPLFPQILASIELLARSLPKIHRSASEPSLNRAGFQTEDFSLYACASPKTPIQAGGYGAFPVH
T2 sequence (P15056 whole entry G466V): as the sequence (P15056 whole entry D594G) above, with G466V, G594D counted along it
T1 sequence (P15056 whole entry V600E, the tested form may be a part): as the sequence (P15056 whole entry D594G) above, with G594D, V600E counted along it
T3 sequence (P15056 whole entry G469A): as the sequence (P15056 whole entry D594G) above, with G469A, G594D counted along it

DC50 (BRAF V600E; [1]) | Dmax (BRAF V600E; [2]) | DC50 (BRAF G466V; [3]) | Dmax (BRAF G466V; [4]) | DC50 (BRAF G469A; [5]) | Dmax (BRAF G469A; [6]) | DC50 (BRAF D594G; [7]) | Dmax (BRAF D594G; [8]) | DC50 (BRAF V600E; A375 (BRAF V600E), DC50 at 50%: fitted conc. at Y=50) | Dmax (BRAF V600E; A375 (BRAF V600E), percentage protein degraded at maximal compound effect relative to DMSO) | DC50 (BRAF G466V; BRAF G466V, DC50 at 50%: fitted conc. at Y=50) | Dmax (BRAF G466V; HCT-116, BRAF G466V, percentage protein degraded at maximal compound effect relative to DMSO) | DC50 (BRAF G469A; Class 2, BRAF G469A, DC50 at 50%: fitted conc. at Y=50) | Dmax (BRAF G469A; HCT-116, Class 2, BRAF G469A, percentage protein degraded at maximal compound effect relative to DMSO) | DC50 (BRAF D594G; BRAF D594G, DC50 at 50%: fitted conc. at Y=50) | Dmax (BRAF D594G; HCT-116, BRAF D594G, percentage protein degraded at maximal compound effect relative to DMSO) | SMILES
< 10 nM | > 70% | < 10 nM | > 70% | 10 to 50 nM | 30 to 70% | < 10 nM | 30 to 70% | – | – | – | – | – | – | – | – | C[C@@H]1CN(c2ccc(-n3cc(-c4cc(Cl)cc(NS(=O)(=O)N5CC[C@@H](F)C5)c4F)c(-c4ccncc4)n3)cc2)CCN1CC1CCN(c2ccc(N3CCC(=O)NC3=O)cc2)CC1 [Compound 315, (3R)—N-[5-chloro-3-(1-{4-[(3R)-4-({1-[4-(2,4-dioxo-1,3-diazinan-1-yl)phenyl]piperidin-4-yl}methyl)-3-methylpiperazin-1-yl]phenyl}-3-(pyridin-4-yl)-1H-pyrazol-4-yl)-2-fluorophenyl]-3-fluoropyrrolidine-1-sulfonamide]
– | – | – | – | – | – | – | – | 10 to 50 nM | > 70% | > 500 nM | 30 to 70% | > 500 nM | 30 to 70% | > 500 nM | 30 to 70% | CCCS(=O)(=O)Nc1cccc(-c2nc(-c3ccc(C4CCN(C(=O)CC5CCN(c6ccc(C7CCC(=O)NC7=O)cn6)CC5)CC4)cc3)sc2-c2ccnc(N)n2)c1F (racemic) [Compound 207, Rac-N-{3-[5-(2-aminopyrimidin-4-yl)-2-(4-{1-[2-(1-{5-[(3R)-2,6-dioxopiperidin-3-yl]pyridin-2-yl}piperidin-4-yl)acetyl]piperidin-4-yl}phenyl)-1,3-thiazol-4-yl]-2-fluorophenyl}propane-1-sulfonamide]
< 10 nM | > 70% | < 10 nM | > 70% | 10 to 50 nM | > 70% | < 10 nM | > 70% | – | – | – | – | – | – | – | – | C[C@@H]1CN(c2ccc(-n3cc(-c4cc(Cl)cc(NS(=O)(=O)N5CCCC5)c4F)c(-c4ccncc4)n3)nc2)CCN1CC1CCN(c2ccc([C@H]3CCC(=O)NC3=O)cn2)CC1 [Compound 325, N-[5-chloro-3-(1-{5-[(3R)-4-[(1-{5-[(3R)-2,6-dioxopiperidin-3-yl]pyridin-2-yl}piperidin-4-yl)methyl]-3-methylpiperazin-1-yl]pyridin-2-yl}-3-(pyridin-4-yl)-1H-pyrazol-4-yl)-2-fluorophenyl]pyrrolidine-1-sulfonamide]
50 to 500 nM | > 70% | 50 to 500 nM | 30 to 70% | > 500 nM | 30 to 70% | 10 to 50 nM | 30 to 70% | – | – | – | – | – | – | – | – | CCN(C)S(=O)(=O)Nc1cccc(-c2cn(-c3ccc(N4CCN(CC5CCN(c6ccc([C@@H]7CCC(=O)NC7=O)cn6)CC5)CC4)c(F)c3)nc2-c2ccncc2)c1F [Compound 380, (3S)-3-(6-{4-[(4-{4-[4-(3-{[ethyl(methyl)sulfamoyl]amino}-2-fluorophenyl)-3-(pyridin-4-yl)-1H-pyrazol-1-yl]-2-fluorophenyl}piperazin-1-yl)methyl]piperidin-1-yl}pyridin-3-yl)piperidine-2,6-dione]
